In patent publication US11180499B2, “Phosphodiesterase inhibitors” (BOARD OF REGENTS OF THE UNIVERSITY OF NEBRASKA, priority 2018, dated 2021):

What was measured:
PDE4D = biological target: T1, PDE4D (Homo sapiens, UniProt Q08499); assay: In vitro PDE4 inhibition study, PDE4D (BPS Bioscience); type: binding; conditions: values in parentheses
T1 construct: purchased BPS Bioscience, San Diego
Description: (§1) The IC50 values of Compound 8 on PDE4 isoforms were determined by BPS Bioscience, San Diego. In brief, coat proteins (PDE4 isoforms) were added into the plate in a volume of 50 μl (2-5 ng/μl) at 4° C. overnight. The next day, Compound 8 was added to the coated plate with varying concentrations followed by addition of the corresponding biotinylated binding partner. The reaction was incubated for 2 hours at room temperature. Binding assays were performed in duplicate at each concentration and the plates were read by using Synergy 2 BioTek plate reader. The luminescence data were analyzed using the Graphpad Prism. […] Data for a reference compounds or antibodies are included as a control for inhibition. “ND” indicates the compound was not tested.

PDE4B = biological target: T2, PDE4B (Homo sapiens, UniProt Q07343); assay: In vitro PDE4 inhibition study, PDE4B (BPS Bioscience); type: binding; conditions: for inhibition at 10 µM: values in parentheses
T2 construct: purchased BPS Bioscience, San Diego
T2 sequence (Q07343 whole entry): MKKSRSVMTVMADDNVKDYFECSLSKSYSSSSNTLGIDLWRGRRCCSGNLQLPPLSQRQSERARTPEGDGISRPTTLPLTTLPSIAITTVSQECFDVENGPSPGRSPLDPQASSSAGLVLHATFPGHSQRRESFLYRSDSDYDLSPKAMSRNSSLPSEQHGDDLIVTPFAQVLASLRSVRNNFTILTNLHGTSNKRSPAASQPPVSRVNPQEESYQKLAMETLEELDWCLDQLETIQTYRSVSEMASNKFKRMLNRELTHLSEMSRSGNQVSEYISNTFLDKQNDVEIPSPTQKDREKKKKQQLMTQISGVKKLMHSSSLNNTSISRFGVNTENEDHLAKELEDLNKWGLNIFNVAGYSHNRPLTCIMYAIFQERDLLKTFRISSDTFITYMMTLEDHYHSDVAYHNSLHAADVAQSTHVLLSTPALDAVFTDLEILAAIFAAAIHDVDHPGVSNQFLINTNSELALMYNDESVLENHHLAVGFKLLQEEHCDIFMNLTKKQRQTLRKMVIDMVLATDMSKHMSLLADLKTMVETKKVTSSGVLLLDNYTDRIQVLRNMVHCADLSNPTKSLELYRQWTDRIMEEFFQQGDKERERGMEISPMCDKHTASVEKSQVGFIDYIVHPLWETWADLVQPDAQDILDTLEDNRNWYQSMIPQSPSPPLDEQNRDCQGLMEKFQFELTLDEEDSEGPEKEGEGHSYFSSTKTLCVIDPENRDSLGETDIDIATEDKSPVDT
Description: as §1

T1 sequence (Q08499 whole entry): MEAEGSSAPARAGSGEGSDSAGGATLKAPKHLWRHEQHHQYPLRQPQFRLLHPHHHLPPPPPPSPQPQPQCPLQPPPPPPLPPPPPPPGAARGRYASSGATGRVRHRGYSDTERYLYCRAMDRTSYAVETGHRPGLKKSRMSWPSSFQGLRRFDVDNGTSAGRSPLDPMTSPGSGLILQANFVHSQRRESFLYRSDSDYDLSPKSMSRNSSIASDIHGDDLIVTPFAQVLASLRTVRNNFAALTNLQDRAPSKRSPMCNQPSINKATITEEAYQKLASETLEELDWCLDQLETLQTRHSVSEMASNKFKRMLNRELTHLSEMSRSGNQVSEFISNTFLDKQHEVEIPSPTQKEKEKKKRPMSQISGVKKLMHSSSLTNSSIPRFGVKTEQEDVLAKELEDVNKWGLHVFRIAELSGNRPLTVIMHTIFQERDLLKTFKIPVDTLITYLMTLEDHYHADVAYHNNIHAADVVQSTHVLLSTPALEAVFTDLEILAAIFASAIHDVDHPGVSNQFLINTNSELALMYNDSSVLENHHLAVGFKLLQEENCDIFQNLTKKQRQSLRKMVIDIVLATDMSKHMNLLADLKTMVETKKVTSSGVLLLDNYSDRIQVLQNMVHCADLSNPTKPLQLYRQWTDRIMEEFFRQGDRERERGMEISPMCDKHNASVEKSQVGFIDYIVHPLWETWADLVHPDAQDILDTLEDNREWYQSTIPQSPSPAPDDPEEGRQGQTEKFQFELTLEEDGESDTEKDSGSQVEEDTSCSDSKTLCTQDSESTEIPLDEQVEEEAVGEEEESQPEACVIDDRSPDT

inhibition at 10 µM (PDE4D) [%]	IC50 (PDE4B) [nM]	inhibition at 10 µM (PDE4B) [%]	SMILES
24	1100	–	O=C(NC1CCC1)c1cc2cccnc2n1-c1ccc(Cl)c(Cl)c1 [Compound 2, N-cyclobutyl-1-(3,4-dichlorophenyl)-1H-pyrrolo[2,3-b]pyridine-2-carboxamide]
36	600	–	O=C(NC1CC(F)C1)c1cc2cccnc2n1-c1ccc(Cl)c(Cl)c1 (stereo not drawn) [Compound 3, 1-(3,4-Dichlorophenyl)-N-(3-fluorocyclobutyl)-1H-pyrrolo[2,3-b]pyridine-2-carboxamide]
11.6	–	23	O=C(NC1CC(F)(F)C1)c1cc2cccnc2n1-c1ccc(Cl)c(Cl)c1 [Compound 4, 1-(3,4-dichlorophenyl)-N-(3,3-difluorocyclobutyl)-1H-pyrrolo[2,3-b]pyridine-2-carboxamide]
52	–	70	O=C(NCc1ccco1)c1cc2cccnc2n1-c1ccc(Cl)c(Cl)c1 [Compound 5, 1-(3,4-dichlorophenyl)-N-(furan-2-ylmethyl)-1H-pyrrolo[2,3-b]pyridine-2-carboxamide]
–	110	–	O=C(c1cc2cccnc2n1-c1ccc(Cl)c(Cl)c1)N1CCC1 [Compound 6, Azetidin-1-yl(1-(3,4-dichlorophenyl)-1H-pyrrolo[2,3-b]pyridin-2-yl)methanone]
77	230	–	O=C(c1cc2cccnc2n1-c1ccc(Cl)c(Cl)c1)N1CC(F)C1 [Compound 7, (1-(3,4-dichlorophenyl)-1H-pyrrolo[2,3-b]pyridin-2-yl)(3-fluoroazetidin-1-yl)methanone]
39	–	73	O=C(c1cc2cccnc2n1-c1ccc(Cl)c(Cl)c1)N1CCCC2(CCO2)C1 (stereo not drawn) [Compound 10, (1-(3,4-dichlorophenyl)-1H-pyrrolo[2,3-b]pyridin-2-yl)(1-oxa-6-azaspiro[3.5]nonan-6-yl)methanone]
17	–	39	O=C(c1cc2cccnc2n1-c1ccc(Cl)c(Cl)c1)N1CCS(=O)(=O)CC1 [Compound 11, (1-(3,4-dichlorophenyl)-1H-pyrrolo[2,3-b]pyridin-2-yl)(1,1-dioxidothiomorpholino) methanone]
29	–	50	O=C(c1cc2cccnc2n1-c1ccc(Cl)c(Cl)c1)N1CCC2(CCC2)CC1 [Compound 12, (1-(3,4-dichlorophenyl)-1H-pyrrolo[2,3-b]pyridin-2-yl)(7-azaspiro[3.5]nonan-7-yl) methanone]
–	980	–	O=C(c1cc2cccnc2n1-c1ccc(Cl)c(Cl)c1)N1CCC2(CCC2)C1 [Compound 13, (1-(3,4-dichlorophenyl)-1H-pyrrolo[2,3-b]pyridin-2-yl)(6-azaspiro[3.4]octan-6-yl) methanone]
13	–	33	O=C(c1cc2cccnc2n1-c1ccc(Cl)c(Cl)c1)N1CC2(CCNCC2)C1 [Compound 15, (1-(3,4-dichlorophenyl)-1H-pyrrolo[2,3-b]pyridin-2-yl)(2,7-diazaspiro[3.5]nonan-2-yl) methanone]
43	2300	–	Cc1ccc(-n2c(C(=O)NC3CCC3)cc3cccnc32)cc1Cl [Compound 17, 1-(3-chloro-4-methylphenyl)-N-cyclobutyl-1H-pyrrolo[2,3-b]pyridine-2-carboxamide]
60	910	–	Cc1ccc(-n2c(C(=O)N3CC(F)C3)cc3cccnc32)cc1Cl [Compound 20, (1-(3-chloro-4-methylphenyl)-1H-pyrrolo[2,3-b]pyridin-2-yl)(3-fluoroazetidin-1-yl) methanone]
53	1400	–	O=C(NC1CC1)c1cc2cccnc2n1-c1cc(F)c(Cl)c(F)c1 [Compound 21, 1-(4-chloro-3,5-difluorophenyl)-N-cyclopropyl-1H-pyrrolo[2,3-b]pyridine-2-carboxamide]
10.7	1300	–	O=C(NC1CCC1)c1cc2cccnc2n1-c1cc(F)c(Cl)c(F)c1 [Compound 22, 1-(4-chloro-3,5-difluorophenyl)-N-cyclobutyl-1H-pyrrolo[2,3-b]pyridine-2-carboxamide]
62	210	–	O=C(c1cc2cccnc2n1-c1cc(F)c(Cl)c(F)c1)N1CC(F)C1 [Compound 25, (1-(4-chloro-3,5-difluorophenyl)-1H-pyrrolo[2,3-b]pyridin-2-yl)(3-fluoroazetidin-1-yl) methanone]
12.1	–	58	N#Cc1c(F)cc(-n2c(C(=O)NC3CC(F)C3)cc3cccnc32)cc1F (stereo not drawn) [Compound 28, 1-(4-cyano-3,5-difluorophenyl)-N-(3-fluorocyclobutyl)-1H-pyrrolo[2,3-b]pyridine-2-carboxamide]
18	–	47	N#Cc1c(F)cc(-n2c(C(=O)NC3CC(F)(F)C3)cc3cccnc32)cc1F [Compound 29, 1-(4-cyano-3,5-difluorophenyl)-N-(3,3-difluorocyclobutyl)-1H-pyrrolo[2,3-b]pyridine-2-carboxamide]
10.1	2900	–	O=C(NC1CC1)c1cc2cccnc2n1-c1ccc(Cl)cc1 [Compound 31, 1-(4-chlorophenyl)-N-cyclopropyl-1H-pyrrolo[2,3-b]pyridine-2-carboxamide]
28.2	5000	–	O=C(NC1CCC1)c1cc2cccnc2n1-c1ccc(Cl)cc1 [Compound 32, 1-(4-chlorophenyl)-N-cyclobutyl-1H-pyrrolo[2,3-b]pyridine-2-carboxamide]
24	970	–	O=C(NC1CC1)c1cc2cccnc2n1-c1ccc(Cl)c(F)c1 [Compound 33, 1-(4-chloro-3-fluorophenyl)-N-cyclopropyl-1H-pyrrolo[2,3-b]pyridine-2-carboxamide]
39	1300	–	O=C(NC1CCC1)c1cc2cccnc2n1-c1ccc(Cl)c(F)c1 [Compound 34, 1-(4-chloro-3-fluorophenyl)-N-cyclobutyl-1H-pyrrolo[2,3-b]pyridine-2-carboxamide]
71	610	–	O=C(c1cc2cccnc2n1-c1ccc(Cl)c(F)c1)N1CC(F)C1 [Compound 37, (1-(4-chloro-3-fluorophenyl)-1H-pyrrolo[2,3-b]pyridin-2-yl)(3-fluoroazetidin-1-yl) methanone]
37	–	67	COc1ccc(-n2c(C(=O)N3CC(F)C3)cc3cccnc32)cc1 [Compound 38, (3-fluoroazetidin-1-yl)(1-(4-methoxyphenyl)-1H-pyrrolo[2,3-b]pyridin-2-yl)methanone]
–	490	–	COc1ncc(-n2c(C(=O)N3CC(F)C3)cc3cccnc32)cc1Cl [Compound 39, (1-(5-chloro-6-methoxypyridin-3-yl)-1H-pyrrolo[2,3-b]pyridin-2-yl)(3-fluoroazetidin-1-yl) methanone]
–	980	–	O=C(c1cc2cccnc2n1-c1ccnc(F)c1)N1CC(F)C1 [Compound 41, (3-fluoroazetidin-1-yl)(1-(2-fluoropyridin-4-yl)-1H-pyrrolo[2,3-b]pyridin-2-yl)methanone]
–	410	–	COc1c(F)cc(-n2c(C(=O)N3CC(F)C3)cc3cccnc32)cc1F [Compound 42, (1-(3,5-difluoro-4-methoxyphenyl)-1H-pyrrolo[2,3-b]pyridin-2-yl)(3-fluoroazetidin-1-yl) methanone]

SMILES	inhibition at 10 µM (PDE4D) [%]	IC50 (PDE4B) [nM]	inhibition at 10 µM (PDE4B) [%]
N#Cc1c(F)cc(-n2c(C(=O)NC3CC3)cc3cccnc32)cc1F [Compound 26, 1-(4-cyano-3,5-difluorophenyl)-N-cyclopropyl-1H-pyrrolo[2,3-b]pyridine-2-carboxamide]	18.5	1400	–
N#Cc1c(F)cc(-n2c(C(=O)NC3CCC3)cc3cccnc32)cc1F [Compound 27, 1-(4-cyano-3,5-difluorophenyl)-N-cyclobutyl-1H-pyrrolo[2,3-b]pyridine-2-carboxamide]	16.6	1800	–
N#Cc1c(F)cc(-n2c(C(=O)N3CC(F)C3)cc3cccnc32)cc1F [Compound 30, 2,6-difluoro-4-(2-(3-fluoroazetidine-1-carbonyl)-1H-pyrrolo[2,3-b]pyridin-1-yl)benzonitrile]	66	430	–
O=C(c1cc2cccnc2n1Cc1ccc(Cl)c(Cl)c1)N1CC(F)C1 [Compound 43, (1-(3,4-dichlorobenzyl)-1H-pyrrolo[2,3-b]pyridin-2-yl)(3-fluoroazetidin-1-yl)methanone]	58	–	72
